Assays:
[1] = tested on: NCM460 cells; test: Cell rounding assay; type: cell-based, human; details: EGFR antibody 20 μg/ml or AG1478 0.5 μM 30 minutes, then TxB 20 nM 1 hour
Method: NCM460 cells were seeded on glass cover slides overnight. […] Cells were then fixed with formaldehyde for 10 minutes and rinsed three times in PBS. Percentage of cell rounding was quantitated by phase-contrast microscopy.

[2] = tested on: Rho; test: C3 exoenzyme-catalyzed ADP-ribosylation assay (TxB-induced Rho glucosylation); type: cell-based, human; details: NCM460 cells; EGFR antibody 20 μg/ml or AG1478 0.5 μM 30 minutes, then TxB 20 nM 1 hour
[3] = tested on: ERK1/2; test: Western blot of ERK1/2 phosphorylation in colonocytes exposed to C. difficile toxin or LPA; type: cell-based, human; details: for TxB's activation of ERK: colonocytes preincubated with BAPTA 20uM or GF109203X 1uM before TxB addition
Method: NCM460 or HT29 cells were seeded in 12 well plates and grown to 70%-100% confluency. Cells were serum starved overnight prior to experiments. TxB or TxA were added in serum free medium at the indicated concentrations for varying lengths of time. Cells were then washed three times with ice cold phosphate buffered saline (PBS) and lysed in 1×SDS sample buffer (Cell Signaling Technology, Beverly, Mass.). Equal amounts of cell lysates were loaded onto 10% SDS-PAGE gels and transferred to nitrocellulose membranes (Bio-Rad Laboratories, Hercules, Calif.). Blots were probed with each primary antibody overnight at 4° C. and then with species-specific secondary antibodies coupled with horseradish peroxidase for 1 hour at room temperature. Peroxidase activity was detected by SuperSignal Chemiluminescent Substrate (Pierce, Rockford, Ill.). Signals were analyzed and quantified as described (Na, X. et al., EMBO J., 22:4249-4259 (2003)) and results were expressed as mean ±SD.

[4] = tested on: IL-8; details: cited from earlier work
[5] = tested on: IL-8 promoter; test: IL-8 luciferase promoter assay; type: cell-based, human; details: NCM460 cells; inhibitor 30 minutes, then TxB 20 nM 16 hours; versus DMSO
Method: A 1521-bp fragment (nucleotides −1481 to +40) of the promoter region of the human IL-8 gene was used to monitor transcription of IL-8 gene as previously described (Keates, S. et al., J. Biol. Chem., 276:48127-48134 (2001)). Cells were grown on 24-well plates and transiently transfected with the IL-8 promoter luciferase construct and a control luciferase construct pRL-TK (Promega Corp., Madison, Wis.) using Superfect (Qiagen Inc., Chatsworth, Calif.). Transfected cells were serum starved overnight and then exposed to TxB and/or pharmacological inhibitors at the indicated times. Cells were lysed, and firefly and renilla luciferase activities in cell extracts were measured using Dual-Luciferase Reporter Assay System (Promega Corp., Madison, Wis.). The relative luciferase activity was calculated by normalizing IL-8 promoter-driven firefly luciferase activity to control Renilla luciferase activity. Data from all experiments are represented as the relative luciferase activity (mean ±SD) from at least three independent sets of experiments, each with triplicate measurements.

[6] = tested on: IL-8; details: cited from earlier work; remark: listed apart in the source
[7] = target: T1, EGFR (Homo sapiens, UniProt P00533); test: Western blot of EGFR phosphorylation in colonocytes exposed to C. difficile toxin; type: cell-based; details: for TxB's activation of EGFR: colonocytes preincubated with BAPTA 20uM or GF109203X 1uM before TxB addition
T1 construct: endogenous in cells; host or cells: NCM460 (nontransformed human colonic epithelial cells); HT29 (colonic adenocarcinoma cells)

[8] = tested on: TGF-α; test: TGF-α secretion ELISA; type: cell-based, human; details: NCM460 cells; GM6001 25 μM 30 minutes prior to TxB for 1 or 3 hours; versus DMSO
Method: TGF-α secretion from colonocyte cultures was measured by enzyme-linked immunosorbent assay. Briefly, 96-well Nunc-immuno plates (Fisher Scientific) were coated with 0.4 ug/ml of TGF-α antibody diluted in PBS overnight at room temperature. Wells were blocked with PBS containing 1% BSA for 1 hour after washing 3 times with PBST (PBS with 0.1% Twin-20). Fifty μl of conditioned media or serial dilutions of TGF-α in PBS containing 1% BSA were then added to each well. After 2 hours, wells were washed and incubated with 0.3 μg/ml biotin-conjugated anti-TGF-α antibody for 1 hour. Streptavidin-horseradish peroxidase (1:1500) from Amersham Bioscience (Amersham, UK) was added to the wells. Peroxidase activity was measured by TMB Peroxidase Substrate Reagents (KPL Inc, Gaithersburg, Md.).

T1 sequence (P00533 25-1210): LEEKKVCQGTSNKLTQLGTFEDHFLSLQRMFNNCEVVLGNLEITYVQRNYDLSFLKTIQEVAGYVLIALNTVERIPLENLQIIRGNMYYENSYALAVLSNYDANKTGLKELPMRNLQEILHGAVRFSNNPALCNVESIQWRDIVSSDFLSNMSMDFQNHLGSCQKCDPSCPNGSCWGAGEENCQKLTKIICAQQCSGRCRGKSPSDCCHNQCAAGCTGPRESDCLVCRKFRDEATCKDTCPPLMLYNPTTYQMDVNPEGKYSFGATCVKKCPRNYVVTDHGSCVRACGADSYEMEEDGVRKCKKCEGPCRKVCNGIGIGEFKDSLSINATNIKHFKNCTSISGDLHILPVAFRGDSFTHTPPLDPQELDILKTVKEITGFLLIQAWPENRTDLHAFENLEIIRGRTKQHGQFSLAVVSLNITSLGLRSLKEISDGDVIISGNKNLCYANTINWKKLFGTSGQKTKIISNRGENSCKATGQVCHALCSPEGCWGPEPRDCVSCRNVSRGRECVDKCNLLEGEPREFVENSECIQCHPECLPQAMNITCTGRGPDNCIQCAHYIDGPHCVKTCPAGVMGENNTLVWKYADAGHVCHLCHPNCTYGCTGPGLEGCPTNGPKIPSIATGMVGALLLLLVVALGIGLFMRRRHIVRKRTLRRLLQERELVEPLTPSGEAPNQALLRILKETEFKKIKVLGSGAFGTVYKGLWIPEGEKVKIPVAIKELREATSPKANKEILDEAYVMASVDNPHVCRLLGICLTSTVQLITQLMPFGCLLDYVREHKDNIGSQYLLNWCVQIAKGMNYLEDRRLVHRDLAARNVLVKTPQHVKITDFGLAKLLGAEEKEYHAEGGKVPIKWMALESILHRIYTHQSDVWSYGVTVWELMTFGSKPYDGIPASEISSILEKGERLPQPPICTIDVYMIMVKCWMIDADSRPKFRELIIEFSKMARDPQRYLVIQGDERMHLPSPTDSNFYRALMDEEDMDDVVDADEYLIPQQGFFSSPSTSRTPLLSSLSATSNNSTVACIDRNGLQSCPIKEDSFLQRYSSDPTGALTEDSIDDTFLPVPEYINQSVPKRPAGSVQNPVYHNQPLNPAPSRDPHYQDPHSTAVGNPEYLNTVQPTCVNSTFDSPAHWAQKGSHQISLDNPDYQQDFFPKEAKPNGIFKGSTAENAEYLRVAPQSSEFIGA

COc1cc2ncnc(Nc3cccc(Cl)c3)c2cc1OC [AG1478, tyrphostin AG1478]
TxB-induced cell rounding [1]: neither an EGFR antibody, nor a specific EGFR inhibitor, AG1478, altered | TxB-induced Rho glucosylation [2]: neither an EGFR antibody, nor a specific EGFR inhibitor, AG1478, altered | Activation of ERK1/2 by TxB ([3]; NCM460 cells, AG1478 0.2-1.0 uM for 30 minutes, then TxB 20 nM 60 minutes): completely blocked | IL-8 production mediated by H. pylori [4]: significantly reduced | TxB-mediated IL-8 expression [5]: significantly inhibited | IL-8 production mediated by neurotensin [6]: significantly reduced

O=C(O)CN(CC(=O)O)c1ccccc1OCCOc1ccccc1N(CC(=O)O)CC(=O)O [BAPTA]
TxB's activation of ERK [3]: decreased | TxB's activation of EGFR [7]: decreased

CN(C)CCCn1cc(C2=C(c3c[nH]c4ccccc34)C(=O)NC2=O)c2ccccc21 [GF109203X]
TxB's activation of ERK [3]: decreased | TxB's activation of EGFR [7]: decreased

CNC(=O)[C@H](Cc1c[nH]c2ccccc12)NC(=O)[C@@H](CC(=O)NO)CC(C)C [GM6001]
TxB-induced TGF-α secretion [8]: significantly inhibited | Activation of ERK1/2 induced by TxB ([3]; NCM460 cells, BB94 3 mg/ml or GM6001 25 μM 30 minutes prior to TxB 20 nM, versus DMSO at 60 minutes): significantly inhibited | Activation of the EGFR induced by TxB ([7]; NCM460 cells, BB94 or GM6001 25 μM 30 minutes prior to TxB 20 nM, versus DMSO at 60 minutes): significantly inhibited

COc1cccc(-c2cc(=O)c3ccccc3o2)c1N [PD98059]
TxB-mediated IL-8 expression [5]: significantly inhibited
